Entries after “also recorded” stand apart in the source; their conditions may differ.
What was measured:
MLL-AF9 AML cells [1] = experiment: Double-stranded DNA breaks in MLL-AF9 AML cells of treated mice, flow cytometry for gamma-H2AX; type: in vivo, mouse; details: short term DON after iCT; one day after the last dose of DON
Method: Recipient male mice (age 8-10 weeks) were injected intravenously (retro-orbital) with 1 million leukemia cells in a volume of 100 μl of saline. Disease progression was tracked intravitally using bioluminescence imaging. Mice were anaesthetized using isoflurane, injected with luciferin (150 μl of a 15 mg/ml solution in PBS), and imaged on an IVIS 200 Spectrum In Vivo Imaging System (PerkinElmer). When indicated, mice were treated with iCT (cytarabine, 100 mg/kg, once daily for 5 days and doxorubicin, 3 mg/kg, once daily for the first 3 days) or vehicle (saline) delivered via I.P. injection. […]
Cells were suspended in flow buffer and stained for 30 minutes at 4° C. in the dark with antibodies against c-Kit, Sca-1, CD34, CD45, Ter-119, CD31, LepR, CD90, CD105, SLC1A3, SLC38A1 or a lineage cocktail (CD3, Gr-1, CD11b, B220, Ter-119). […] Cell viability was analyzed using Annexin V-APC (BioLegend) and propidium iodide (PI; ThermoFisher Scientific) with Annexin V^−PI^− cells considered as viable cells. The number of viable cells was determined by taking into account the total number of cells per well as measured using a Cellometer (Nexcelom). Mitochondrial membrane potential was measured by Tetramethylrhodamine, ethyl ester (TMRE; ThermoFisher) staining and levels of ROS were measured by CellROX Orange staining. […]

[2] = test system: solid tumors and leukemia; details: Phase I and II clinical trials, cited from earlier work
MLL-AF9 AML cells [3] = experiment: Flow cytometric quantification of CD34 and cKit levels in AML cells obtained from treated mice; type: in vivo, mouse
Method: (§1) Recipient male mice (age 8-10 weeks) were injected intravenously (retro-orbital) with 1 million leukemia cells in a volume of 100 μl of saline. Disease progression was tracked intravitally using bioluminescence imaging. Mice were anaesthetized using isoflurane, injected with luciferin (150 μl of a 15 mg/ml solution in PBS), and imaged on an IVIS 200 Spectrum In Vivo Imaging System (PerkinElmer). When indicated, mice were treated with iCT (cytarabine, 100 mg/kg, once daily for 5 days and doxorubicin, 3 mg/kg, once daily for the first 3 days) or vehicle (saline) delivered via I.P. injection. To inhibit glutamine metabolism, mice were treated with DON (0.3 mg/kg, once daily) or vehicle (saline) delivered via I.P. injection. To inhibit GLS, mice were treated with a GLS inhibitor (150 mg/kg, twice daily) or vehicle (20% HP-β-cyclodextrin+20% Solutol, 50 mM citrate buffer, pH 3) delivered by oral gavage. To inhibit DHODH, mice were treated with BRQ (50 mg/kg, once daily) or vehicle (70% PBS, 30% poly(ethylene glycol)-400, pH 7.2) delivered via I.P. injection. To inhibit GCL, mice were treated with BSO (twice daily by I.P. injection at 2.23 mg/kg+in the drinking water at 4.45 mg/ml) or vehicle (saline by I.P. injection+untreated drinking water).
(§2) Cells were suspended in flow buffer and stained for 30 minutes at 4° C. in the dark with antibodies against c-Kit, Sca-1, CD34, CD45, Ter-119, CD31, LepR, CD90, CD105, SLC1A3, SLC38A1 or a lineage cocktail (CD3, Gr-1, CD11b, B220, Ter-119). 7-AAD was included as a viability dye to help identify dead cells. When necessary, cells were stained with a secondary antibody (Alexa Fluor 546-conjugated anti-rabbit IgG) or APC-eFluor 780-conjugated streptavidin (eBioscience) for 15 minutes at 4° C. in the dark. […] Cell viability was analyzed using Annexin V-APC (BioLegend) and propidium iodide (PI; ThermoFisher Scientific) with Annexin V^−PI^− cells considered as viable cells. The number of viable cells was determined by taking into account the total number of cells per well as measured using a Cellometer (Nexcelom). Mitochondrial membrane potential was measured by Tetramethylrhodamine, ethyl ester (TMRE; ThermoFisher) staining and levels of ROS were measured by CellROX Orange staining. Cells were incubated with 200 nM TMRE or 2.5 μM CellROX Orange in RPMI1640 medium supplemented with 10% FBS, 100 I.U./ml penicillin, 100 μg/ml streptomycin and 2 mM L-glutamine at 37° C. for 30 minutes, washed in flow buffer and analyzed. For all flow cytometry experiments, single color controls were used to set compensations and fluorescence minus one controls were used to set gates. All flow cytometry data was collected on a BD LSR II flow cytometer and analyzed using FlowJo software.

[4] = test system: glutamine metabolism in MLL-AF9 AML cells; experiment: LC-MS-based quantification of metabolites in MLL-AF9 AML cells of treated mice; type: in vivo, mouse; details: one day after the last dose of DON
Method: as §1
Mice were euthanized by CO2 asphyxiation and femurs and tibias were isolated and cleaned to remove muscle. Bones were then crushed using a mortar and pestle in ice-cold flow buffer (PBS containing 2% FBS), and the obtained cell suspension was passed through a 70 μm cell strainer. Red blood cells were removed by incubating cells for 5 minutes in ACK lysing buffer (Gibco) on ice, cells were washed and resuspended in ice-cold flow buffer containing the viability dye 7-aminoactinomycin D (7-AAD; BD Biosciences). Viable AML cells (GFP^+7-AAD^−) were sorted on a BD FACSAria II (BD Biosciences) with the sample collector cooled to 4° C. Sorted cells were immediately processed.
FACS-sorted cells or plasma samples were lysed in ice-cold methanol and polar metabolites were extracted using methanol-chloroform phase separation (methanol:water:chloroform in 2:1:2 ratio). Samples were then dried under nitrogen flow, resuspended in 70% acetonitrile in water containing 2.5 μM of an internal standard (^13C-, ^15N-labeled amino acid mix; Cambridge Isotope Laboratories) and run on a ThermoFisher Q-exactive equipped with Zic-pHILIC column (150×2.1 mm, 5 μm; Merck). A volume of 5 μl was injected and the full mass spectrum was obtained in both positive and negative mode (0 to 45 minutes, resolution 70000, AGC target 3e6, mz range 66 to 990). Mobile phase A for chromatography consisted of 20 mM ammonium carbonate, 0.1% ammonium hydroxide, in water and mobile phase B of 97% acetonitrile in water. For untargeted metabolomics, a pooled sample was created from all samples and used for MS/MS runs. For targeted analysis, a standard mix at 1 μM of each compound of interest was prepared and run after the samples to confirm retention times.
(§3) For untargeted metabolomics analysis, data were processed with Compound Discoverer 3.0 (ThermoFisher Scientific) using the mzCloud mass spectral library for compound annotation. […] For targeted metabolomics analysis, data were analyzed with Tracefinder4.1 (ThermoFisher Scientific).

MLL-AF9 AML cells [5] = experiment: AML burden of MLL-AF9 AML-bearing mice by bioluminescence imaging or flow cytometry; type: in vivo, mouse
Method: as §1, with “To inhibit DHODH, mice were treated with BRQ (50 mg/kg, once daily) or vehicle (70% PBS, 30% poly(ethylene glycol)-400, pH 7.2) delivered via I.P. injection. To inhibit GCL, mice were treated with BSO (twice daily by I.P. injection at 2.23 mg/kg+in the drinking water at 4.45 mg/ml) or vehicle (saline by I.P. injection+untreated drinking water).” left out
as §2, with “Ter-119).” for “Ter-119). 7-AAD was included as a viability dye to help identify dead cells. When necessary, cells were stained with a secondary antibody (Alexa Fluor 546-conjugated anti-rabbit IgG) or APC-eFluor 780-conjugated streptavidin (eBioscience) for 15 minutes at 4° C. in the dark.”, “All flow cytometry data was collected on a BD LSR II flow cytometer and analyzed using FlowJo software.” left out

[6] = Tolerability of DON in AML-bearing mice; type: in vivo, mouse
Method: as §1

MLL-AF9 AML = experiment: Kaplan-Meier survival of MLL-AF9 AML-bearing mice; type: in vivo, mouse
Source text: (§4) The MLL-AF9 and HoxA9/Meis1 leukemia models have been described previously (Sykes et al., 2016). Briefly, the MLL-AF9 model was established by crossing MLL-AF9 knockin mice (Corral et al., 1996) with mice expressing GFP under the control of the ubiquitin promoter as well as mice expressing luciferase under the control of the β-actin promoter. The retroviral transduction model of HoxA9/Meis1 leukemia was generated by the infection of bone marrow mononuclear cells with an MSCV-HoxA9-IRES-Meis1 construct (originally designed by Dr. Guy Sauvageau; Kroon et al., 1998). For both models, leukemic bone marrow cells from a terminally ill mouse were harvested and expanded ex vivo in RPMI1640 medium (Lonza) supplemented with 10% fetal bovine serum (FBS; Gibco), 100 I.U./ml penicillin, 100 μg/ml streptomycin, 2 mM L-glutamine (all from Corning), 20 ng/ml recombinant mouse SCF (rmSCF), 10 ng/ml recombinant mouse interleukin 3 (rmIL-3) and […] (all from R&D Systems).
as §1

MLL-AF9 AML cells [7] = experiment: Colony forming unit assay of AML cells obtained from treated mice; type: in vivo, mouse
Method: as §1, with “water). […] FACS-sorted viable AML cells (GFP^+7-AAD^−) were resuspended in MethoCult GF M3434 (StemCell Technologies) at 1000 cells/ml and plated in SmartDish 6-well plates (StemCell Technologies) at 1 ml/well in duplicate. Cells were cultured in a humidified incubator at 37° C. in ambient air with 5% CO2. After 5 days colonies were counted.” for “water).”

HoxA9/Meis1 AML cells = experiment: AML cell elimination in HoxA9/Meis1 AML-bearing mice; type: in vivo, mouse; details: DON after completion of iCT
Method: as §1

MLL-AF9 AML cells [8] = experiment: Apoptotic cells in MLL-AF9 AML cells of treated mice, flow cytometry for active Caspase 3; type: in vivo, mouse; details: combination of iCT and DON (sequential); one day after the last dose of DON
Method: as §1

HoxA9/Meis1 AML = experiment: Kaplan-Meier survival of HoxA9/Meis1 AML-bearing mice; type: in vivo, mouse
Source text: as §4
Recipient male mice (age 8-10 weeks) were injected intravenously (retro-orbital) with 1 million leukemia cells in a volume of 100 μl of saline. Disease progression was tracked intravitally using bioluminescence imaging. Mice were anaesthetized using isoflurane, injected with luciferin (150 μl of a 15 mg/ml solution in PBS), and imaged on an IVIS 200 Spectrum In Vivo Imaging System (PerkinElmer). […]

[9] = test system: pyrimidine synthesis in HoxA9/Meis1 AML cells; experiment: LC-MS-based quantification of glutamine metabolism and pyrimidine synthesis metabolites in HoxA9/Meis1 AML cells of treated mice; type: in vivo, mouse; details: mice treated with vehicle or BRQ 24 prior
Method: as §1, with “To inhibit GCL, mice were treated with BSO (twice daily by I.P. injection at 2.23 mg/kg+in the drinking water at 4.45 mg/ml) or vehicle (saline by I.P. injection+untreated drinking water).” left out
as §3

[10] = agent alone, compared to vehicle-treated mice
[11] = combination with iCT (sequential), four days after the last dose of iCT

SMILES: [N-]=[N+]=CC(=O)CC[C@H](N)C(=O)O [DON, 6-diazo-5-oxo-L-norleucine]
- double stranded DNA breaks in residual cells (gamma-H2AX) (MLL-AF9 AML cells [1]): increased double stranded DNA breaks
- clinical side effects [2]: dose-dependent side effects including nausea, vomiting and mucositis
- clinical efficacy ([2]; single agent): limited efficacy as a single agent
- percentage of CD34+cKit+ cells (MLL-AF9 AML cells [3]; [10]): no effect on marker expression
- percentage of CD34+cKit+ cells (MLL-AF9 AML cells [3]; [11]): normalized
- UMP levels in chemoresistant AML cells ([4]; DON after iCT): prevented the increase of UMP levels
- glutamate level in AML cells ([4]; DON after iCT): normalizing the increase in glutamate; also recorded: partially reducing the increase in glutamate
- reduced glutathione (GSH) levels in AML cells ([4]; DON after iCT): effective in suppressing the increase in GSH levels
- aspartate level in AML cells ([4]; iCT followed by DON): remained high
- glutamine level in AML cells ([4]; mice treated with iCT and/or DON): accumulation of glutamine
- relapse (MLL-AF9 AML cells [5]; short term DON after iCT, bioluminescence imaging): delayed relapse
- elimination of AML cells (AML burden) (MLL-AF9 AML cells [5]; short term DON after iCT, one day after the last dose of DON): improved elimination of AML cells; also recorded: reduced the number of chemoresistant cells
- tolerability ([6]; DON every other day after iCT): acceptable
- tolerability / toxicity ([6]; daily DON injections after iCT): toxicity issues; also recorded: did not tolerate
- survival (MLL-AF9 AML; DON 0.3 mg/kg I.P. given for 5 days at the same time as iCT (concomitant)): no difference in survival
- survival (MLL-AF9 AML; DON 0.3 mg/kg I.P. started after completion of iCT, covering the moment of maximal response, daily for a short time or continuously every other day): clear survival benefit; also recorded: improved survival
- survival, DON every other day compared to short term DON treatment (MLL-AF9 AML; DON every other day following iCT): further improved mouse survival
- number of colony-forming units (CFUs) (MLL-AF9 AML cells [7]; [10]): moderately increased the number of CFUs
- number of colony-forming units (CFUs) (MLL-AF9 AML cells [7]; [11]): normalized
- AML cell elimination (HoxA9/Meis1 AML cells): enhanced AML cell elimination
- percentage of apoptotic cells (active Caspase 3) (MLL-AF9 AML cells [8]): more apoptotic cells
- survival (HoxA9/Meis1 AML; two doses of DON 0.3 mg/kg I.P. after completion of iCT): improved mouse survival

SMILES: CCCCS(=N)(=O)CCC(N)C(=O)O [BSO, L-buthionine-sulfoximine]
- survival (MLL-AF9 AML; BSO (2.23 mg/kg B.I.D. I.P. + 4.45 mg/ml in drinking water) for 4 days following iCT, compared to iCT alone): no difference in survival compared to iCT alone

SMILES: Cc1c(-c2ccc(-c3ccccc3F)cc2)nc2ccc(F)cc2c1C(=O)O [BRQ, brequinar]
- percentage of CD34+cKit+ cells (MLL-AF9 AML cells [3]; [10]): strongly reduced
- percentage of CD34-cKit+ cells (MLL-AF9 AML cells [3]; combination with iCT, compared to BRQ alone): further reduced
- elimination of AML cells from the bone marrow (MLL-AF9 AML cells [5]; short term BRQ after iCT, four days after the last dose of iCT): improved elimination of AML cells from the bone marrow
- survival (MLL-AF9 AML; two doses of BRQ 50 mg/kg I.P. following iCT, compared to iCT alone): significantly extend survival; also recorded: extended survival
- survival (MLL-AF9 AML; two doses of BRQ 50 mg/kg I.P. following iCT, compared to iCT alone, listed as brequinar): remarkably extend animal survival
- number of colony-forming units (CFUs) (MLL-AF9 AML cells [7]; [10]): strongly reduced
- number of colony-forming units (CFUs) (MLL-AF9 AML cells [7]; [11]): further reduced
- pyrimidine synthesis (metabolite levels) [9]: effectively inhibits pyrimidine synthesis
- survival (HoxA9/Meis1 AML; BRQ 50 mg/kg I.P. following iCT, compared to iCT alone (FIG. 19E)): significantly extend survival
